Source: paper PMC6131205, “Controlling the regioselectivity and stereospecificity of FAD-dependent polyamine oxidases with the use of amine-attached guide molecules as conformational modulators” (Bioscience Reports, 2018)
Where two headings read alike, the source gives them in different places.

Key:
Fms1 [1] = target: T1, Fms1 (Saccharomyces cerevisiae, UniProt P50264); test: Fms1 cleavage of 1 mM Spd supplemented with aldehydes (E1/E2 regioselectivity); format: biochemical, yeast; set-up: made in house; conditions: fixed 1 mM Spd, aldehyde 25-1000 μM, pH 9.0, 25°C;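 note: recombinant yeast Fms1 reactions in Glycine-NaOH buffer, with products Put and DAP quantified by HPLC using post-column o-phthalaldehyde derivatization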
T1 sequence (P50264 whole entry): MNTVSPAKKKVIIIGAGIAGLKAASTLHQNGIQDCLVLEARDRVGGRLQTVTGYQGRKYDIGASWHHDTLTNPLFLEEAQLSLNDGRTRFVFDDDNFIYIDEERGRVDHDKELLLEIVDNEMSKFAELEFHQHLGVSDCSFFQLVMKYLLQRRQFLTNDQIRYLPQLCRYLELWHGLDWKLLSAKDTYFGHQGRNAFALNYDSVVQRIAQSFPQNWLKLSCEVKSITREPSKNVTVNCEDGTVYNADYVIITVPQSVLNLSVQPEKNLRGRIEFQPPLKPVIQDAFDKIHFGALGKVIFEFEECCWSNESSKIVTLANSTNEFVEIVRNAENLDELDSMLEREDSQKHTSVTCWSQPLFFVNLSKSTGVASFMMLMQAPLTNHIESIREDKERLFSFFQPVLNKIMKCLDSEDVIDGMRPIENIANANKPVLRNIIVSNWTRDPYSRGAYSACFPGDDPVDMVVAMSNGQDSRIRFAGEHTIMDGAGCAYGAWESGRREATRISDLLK
Method: (§1) HPLC with post-column o-phthalaldehyde-derivatization was used to determine the concentrations of the reaction products Put and 1,3-diaminopropane (DAP) or butane-1,3-diamine respectively as described in [30]. Fms1 activity was determined essentially as described for human recombinant APAO, but reactions were carried out in 100 mM Glycine-NaOH buffer at pH 9.0 in a water bath at +25°C [29, 30].

Fms1 [2] = target: T1, Fms1; test: Substrate kinetics with recombinant Fms1 (HPLC of reaction products);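 note: recombinant polyamine oxidases incubated with substrate, product amines (putrescine, 1,3-diaminopropane or butane-1,3-diamine) quantified by HPLC after post-column o-phthalaldehyde derivatization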
Method: as §1
The reactions were carried out in 1 triplicate at pH 9.0 in 100 mM Glycine-NaOH at +25°C.
values for N -Ac-MeSpd enantiomers were determined by using substrate concentrations of 25, 50,
for Rac-MeSpd 30 min, (R)-MeSpd 20 min and (S)-MeSpd 40 minutes.
The reactions were carried out in triplicate at pH 9.0 in 100 mM Glycine-NaOH at +25°C.
values for MeSpd enantiomers were determined by using substrate concentrations of 100, 300, 600,
1000, 2000 and 4000 M. Recombinant Fms1 was 3.8 g/reaction and the incubation time 60
incubated for 30 min (half of the reaction time of an ordinary sample). E1 cleavage was monitored
by HPLC by measuring Put formation and E2 cleavage by determining butane-1,3-diamine content.

human recombinant APAO [3] = target: T2, human recombinant APAO (Homo sapiens, UniProt Q6QHF9); test: Substrate kinetics with human recombinant APAO (HPLC of reaction products); format: biochemical; conditions: for Km / Vmax / kcat: 100 mM Glycine-NaOH pH 9.5, 5 mM DTT
T2 construct: made in house
T2 sequence (Q6QHF9 whole entry): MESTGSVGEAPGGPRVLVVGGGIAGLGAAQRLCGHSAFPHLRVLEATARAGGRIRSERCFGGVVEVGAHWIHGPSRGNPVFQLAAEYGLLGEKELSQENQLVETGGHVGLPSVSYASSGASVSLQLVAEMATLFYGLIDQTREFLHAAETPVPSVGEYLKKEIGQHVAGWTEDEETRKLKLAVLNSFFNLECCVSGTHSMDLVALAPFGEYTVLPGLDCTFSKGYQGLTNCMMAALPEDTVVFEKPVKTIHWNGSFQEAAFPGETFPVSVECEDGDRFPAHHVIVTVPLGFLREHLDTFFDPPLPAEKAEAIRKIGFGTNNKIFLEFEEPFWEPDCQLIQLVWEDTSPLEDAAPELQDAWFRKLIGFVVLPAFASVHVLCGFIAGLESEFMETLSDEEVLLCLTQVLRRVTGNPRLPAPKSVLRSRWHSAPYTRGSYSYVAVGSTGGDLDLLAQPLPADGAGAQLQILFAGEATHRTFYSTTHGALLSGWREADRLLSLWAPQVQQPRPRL

human recombinant APAO [4] = target: T2, human recombinant APAO; conditions: cited from earlier work
Fms1 [5] = target: T1, Fms1; set-up: made in house; method as in PMID 21067138; conditions: cited from earlier work
SMOX = SMOX (Homo sapiens, UniProt Q9NWM0); test: Inhibition of SMOX (Ki, peroxidase-coupled fluorescence, Spm as substrate)
Sequence of SMOX (Q9NWM0 whole entry): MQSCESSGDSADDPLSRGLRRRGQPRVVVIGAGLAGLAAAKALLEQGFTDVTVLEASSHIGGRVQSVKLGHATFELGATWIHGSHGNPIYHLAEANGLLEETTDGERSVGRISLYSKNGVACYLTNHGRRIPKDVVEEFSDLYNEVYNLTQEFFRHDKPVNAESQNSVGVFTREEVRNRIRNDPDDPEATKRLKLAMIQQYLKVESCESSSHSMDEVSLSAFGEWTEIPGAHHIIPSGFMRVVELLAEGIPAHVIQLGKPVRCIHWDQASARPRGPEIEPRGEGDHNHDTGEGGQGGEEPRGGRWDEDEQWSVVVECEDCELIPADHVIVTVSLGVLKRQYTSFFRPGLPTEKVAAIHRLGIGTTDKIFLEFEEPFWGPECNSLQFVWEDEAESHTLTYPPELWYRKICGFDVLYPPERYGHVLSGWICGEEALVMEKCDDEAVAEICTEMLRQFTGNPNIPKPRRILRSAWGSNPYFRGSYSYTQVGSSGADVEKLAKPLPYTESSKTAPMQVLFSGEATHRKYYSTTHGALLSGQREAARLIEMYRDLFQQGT
Method: Reaction mixtures contained 40 units/ml horseradish peroxidase (Roche), 1 mM homovanillic acid in 100 mM Glycine-NaOH at pH 9.0 supplemented with 40 ng of SMOX. […] Dilutions of fresh H2O2 were used as standard.

[6] = Supplementary Table 1, pH 9.0, 100 mM Glycine-NaOH, 25°C, Put formation
[7] = Ki (best-fit value, noncompetitive inhibition), GraphPad Prism global fit, supplement
[8] = Ki, non-competitive fit, 25, 50 or 100 µM Spm, pH 9.0, 37°C
[9] = 1 mM Spm, Glycine-NaOH buffer pH 9.0

O=Cc1ccccn1 [C00007]
E1 cleavage (Put) kcat (Fms1 [1]): 0.49 ± 0.01 s⁻¹ | E2 cleavage (DAP) kcat (Fms1 [1]): 0.49 ± 0.01 s⁻¹ | Ratio of E1/E2 (Fms1 [1]): 2.2

Cc1ncc(CO)c(C=O)c1O [C00008]
E1 cleavage (Put) kcat (Fms1 [1]): 1.13 ± 0.03 s⁻¹

COc1ccc(C=O)cc1 [C00009]
E1 cleavage (Put) kcat (Fms1 [1]): 0.13 ± 0.00 s⁻¹ | E2 cleavage (DAP) kcat (Fms1 [1]): 0.22 ± 0.00 s⁻¹

O=CC1CCCCC1 [C00010]
E1 cleavage (Put) kcat (Fms1 [1]): 1.41 ± 0.04 s⁻¹ | E2 cleavage (DAP) kcat (Fms1 [1]): 0.43 ± 0.01 s⁻¹ | Ratio of E1/E2 (Fms1 [1]): 5.4

O=Cc1ccccc1[N+](=O)[O-] [C00011]
E1 cleavage (Put) kcat (Fms1 [1]): 1.06 ± 0.04 s⁻¹ | E2 cleavage (DAP) kcat (Fms1 [1]): 0.03 ± 0.00 s⁻¹

O=Cc1ccc([N+](=O)[O-])cc1 [C00012]
E1 cleavage (Put) kcat (Fms1 [1]): 0.37 ± 0.00 s⁻¹ | E2 cleavage (DAP) kcat (Fms1 [1]): 0.05 ± 0.00 s⁻¹ | Ratio of E1/E2 (Fms1 [1]): 6.4

CC(=O)NC(C)CCNCCCCN (stereo not drawn) [N1-Ac-MeSpd, N8-Acetyl-1,8-diamino-5-azanonane]
Vmax (Fms1 [2]; [6]): 50 ± 3 nmol/min/mg | kcat (Fms1 [2]; [6]): 0.05 ± 0.00 s⁻¹

CC(=O)N[C@H](C)CCNCCCCN [N^1-Ac-(R)-MeSpd]
Vmax (Fms1 [2]; [6]): 61 ± 4 nmol/min/mg | kcat (Fms1 [2]; [6]): 0.06 ± 0.00 s⁻¹ | specificity constant ratio (R)-enantiomer/(S)-enantiomer (human recombinant APAO [3]; APAO, ratio of kcat/Km): 13 | Km (human recombinant APAO [4]): 95 µM | kcat (human recombinant APAO [4]): 9 s⁻¹

CC(=O)N[C@@H](C)CCNCCCCN [N^1-Ac-(S)-MeSpd]
Vmax (Fms1 [2]; [6]): 22 ± 1 nmol/min/mg | kcat (Fms1 [2]; [6]): 0.02 ± 0.00 s⁻¹ | Km (human recombinant APAO [4]): 170 µM | kcat (human recombinant APAO [4]): 1.2 s⁻¹

CC(=O)NCCCNCCCCN [N^1-AcSpd, reference compound]
kcat (Fms1 [2]; [6]): 65 ± 2 s⁻¹

CC(=O)NCCCNCCCCNCCCN [N^1-AcSpm]
kcat (Fms1 [5]): 15.1 ± 0.4 s⁻¹

C[C@H](CCNCCCCN)NC(=O)c1ccncc1 [P4-(R)-MeSpd]
Ki (SMOX; [7]): 1280 µM | Ki (SMOX; [8]): 1280 ± 111 µM | Km (human recombinant APAO [3]): 3.6 ± 0.6 µM | Vmax (human recombinant APAO [3]): 5.59 ± 0.60 µmol/min/mg | kcat (human recombinant APAO [3]): 5.2 ± 0.6 s⁻¹

C[C@@H](CCNCCCCN)NC(=O)c1ccncc1 [P4-(S)-MeSpd]
Ki (SMOX; [7]): 1020 µM | Ki (SMOX; [8]): 1020 ± 79 µM | Km (human recombinant APAO [3]): 0.8 ± 0.2 µM | Vmax (human recombinant APAO [3]): 0.02 ± 0.00 µmol/min/mg | kcat (human recombinant APAO [3]): 0.01 ± 0.00 s⁻¹

NCCCCNCCCN [Spd, spermidine, reference compound]
Ratio of E1/E2 (Fms1 [2]; substrate alone, no aldehyde, pH 9.0, 25°C): 7.5

NCCCNCCCCNCCCN [Spm, spermine, reference compound]
kcat (Fms1 [5]): 39.0 ± 1.5 s⁻¹ | reaction velocity (Fms1 [2]; 1 mM Spm, 100 mM Tris/HCl or 170 mM Bis/Tris buffers pH 9.0): 36.1 ± 0.24 µmol/mg/min | pH of highest reaction velocity (Fms1 [2]; 1 mM Spm, 170 mM Bis/Tris): 9.25 | reaction velocity in comparison with rate at the optimum pH (Fms1 [2]; 1 mM Spm, 170 mM Bis/Tris, pH 8.0): ~ 15% | reaction velocity in comparison with rate at the optimum pH (Fms1 [2]; 1 mM Spm, 170 mM Bis/Tris, pH 8.5): 60% | activity of recombinant Fms1 (Fms1 [2]; [9]): 30.9 ± 0.45 µmol/mg/min | kcat (Fms1 [2]; [9]): 30.3 ± 0.44 s⁻¹
